# Results: paper doi:10.1101/2023.11.24.568596v1 (biorxiv, 2023)
# Assays:
# Conditions in all cases: binder
# Erk7 = molecular target: T1, Erk7 (Homo sapiens, UniProt Q8TD08)
# T1 sequence (Q8TD08 1-544): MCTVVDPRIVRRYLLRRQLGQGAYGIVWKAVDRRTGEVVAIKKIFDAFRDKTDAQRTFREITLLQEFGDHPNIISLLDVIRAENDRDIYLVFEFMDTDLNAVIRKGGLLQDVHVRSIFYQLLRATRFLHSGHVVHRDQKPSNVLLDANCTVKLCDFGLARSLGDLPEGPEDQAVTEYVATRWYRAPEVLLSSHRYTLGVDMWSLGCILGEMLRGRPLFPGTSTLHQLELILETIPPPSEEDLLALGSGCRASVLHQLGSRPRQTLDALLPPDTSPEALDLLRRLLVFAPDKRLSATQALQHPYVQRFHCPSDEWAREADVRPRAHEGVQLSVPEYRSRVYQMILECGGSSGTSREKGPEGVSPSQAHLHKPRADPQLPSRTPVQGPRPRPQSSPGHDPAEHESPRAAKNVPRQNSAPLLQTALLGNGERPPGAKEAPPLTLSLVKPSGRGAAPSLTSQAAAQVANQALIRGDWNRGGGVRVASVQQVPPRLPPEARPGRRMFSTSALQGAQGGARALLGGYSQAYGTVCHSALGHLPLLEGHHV
# NDR2 = NDR2 (Homo sapiens, UniProt Q9Y2H1)
# Chain of NDR2 (Q9Y2H1 whole entry): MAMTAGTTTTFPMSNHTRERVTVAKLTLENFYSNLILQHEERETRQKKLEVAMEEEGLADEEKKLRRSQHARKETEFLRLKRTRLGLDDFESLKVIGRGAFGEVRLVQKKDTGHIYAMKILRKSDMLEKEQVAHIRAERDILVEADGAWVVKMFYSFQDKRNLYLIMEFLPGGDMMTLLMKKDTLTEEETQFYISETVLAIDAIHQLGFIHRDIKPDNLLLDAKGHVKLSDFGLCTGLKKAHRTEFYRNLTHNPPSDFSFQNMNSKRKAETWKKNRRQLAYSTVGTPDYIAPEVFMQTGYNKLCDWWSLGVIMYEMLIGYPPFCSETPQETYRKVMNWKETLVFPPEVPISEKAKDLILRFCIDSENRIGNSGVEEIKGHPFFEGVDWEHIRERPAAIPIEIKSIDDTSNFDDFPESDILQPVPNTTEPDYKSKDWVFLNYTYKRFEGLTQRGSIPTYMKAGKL
# CK2a2 = CK2a2 (Homo sapiens, UniProt P19784)
# Chain of CK2a2 (P19784 whole entry): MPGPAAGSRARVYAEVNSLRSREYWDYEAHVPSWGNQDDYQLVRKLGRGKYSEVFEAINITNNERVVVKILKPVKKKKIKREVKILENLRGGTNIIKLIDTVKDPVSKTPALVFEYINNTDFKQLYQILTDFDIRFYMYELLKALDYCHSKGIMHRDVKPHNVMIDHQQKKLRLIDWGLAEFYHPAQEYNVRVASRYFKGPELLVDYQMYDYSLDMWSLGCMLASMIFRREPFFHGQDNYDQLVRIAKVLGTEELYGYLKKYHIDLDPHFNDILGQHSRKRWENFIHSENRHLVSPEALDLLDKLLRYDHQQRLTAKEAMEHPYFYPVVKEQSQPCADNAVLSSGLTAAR
# DYRK1A = DYRK1A (Homo sapiens, UniProt Q13627)
# BMX = molecular target: T2, BMX (Homo sapiens, UniProt P51813)
# T2 sequence (P51813 1-675): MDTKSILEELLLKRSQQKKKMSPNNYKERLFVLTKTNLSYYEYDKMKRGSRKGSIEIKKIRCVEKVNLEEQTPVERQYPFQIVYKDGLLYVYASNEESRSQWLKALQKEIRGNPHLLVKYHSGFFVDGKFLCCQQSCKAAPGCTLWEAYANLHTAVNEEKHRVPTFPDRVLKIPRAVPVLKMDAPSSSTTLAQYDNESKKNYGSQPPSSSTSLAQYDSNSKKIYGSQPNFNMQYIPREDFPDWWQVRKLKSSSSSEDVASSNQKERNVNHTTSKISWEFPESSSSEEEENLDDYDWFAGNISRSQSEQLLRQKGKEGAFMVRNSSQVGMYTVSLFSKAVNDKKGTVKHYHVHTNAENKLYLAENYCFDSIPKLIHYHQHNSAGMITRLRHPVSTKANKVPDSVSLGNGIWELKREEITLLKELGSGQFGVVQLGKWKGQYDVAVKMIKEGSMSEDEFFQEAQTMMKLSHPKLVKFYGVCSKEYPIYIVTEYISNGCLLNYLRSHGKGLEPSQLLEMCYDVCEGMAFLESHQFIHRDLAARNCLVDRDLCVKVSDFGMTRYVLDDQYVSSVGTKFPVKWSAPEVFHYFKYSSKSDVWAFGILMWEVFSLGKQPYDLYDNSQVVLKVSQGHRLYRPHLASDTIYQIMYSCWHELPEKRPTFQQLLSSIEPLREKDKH
# BRD4 = BRD4 (Homo sapiens, UniProt O60885)
# PLK4 = molecular target: T3, PLK4 (Homo sapiens, UniProt O00444)
# T3 sequence (O00444 1-970): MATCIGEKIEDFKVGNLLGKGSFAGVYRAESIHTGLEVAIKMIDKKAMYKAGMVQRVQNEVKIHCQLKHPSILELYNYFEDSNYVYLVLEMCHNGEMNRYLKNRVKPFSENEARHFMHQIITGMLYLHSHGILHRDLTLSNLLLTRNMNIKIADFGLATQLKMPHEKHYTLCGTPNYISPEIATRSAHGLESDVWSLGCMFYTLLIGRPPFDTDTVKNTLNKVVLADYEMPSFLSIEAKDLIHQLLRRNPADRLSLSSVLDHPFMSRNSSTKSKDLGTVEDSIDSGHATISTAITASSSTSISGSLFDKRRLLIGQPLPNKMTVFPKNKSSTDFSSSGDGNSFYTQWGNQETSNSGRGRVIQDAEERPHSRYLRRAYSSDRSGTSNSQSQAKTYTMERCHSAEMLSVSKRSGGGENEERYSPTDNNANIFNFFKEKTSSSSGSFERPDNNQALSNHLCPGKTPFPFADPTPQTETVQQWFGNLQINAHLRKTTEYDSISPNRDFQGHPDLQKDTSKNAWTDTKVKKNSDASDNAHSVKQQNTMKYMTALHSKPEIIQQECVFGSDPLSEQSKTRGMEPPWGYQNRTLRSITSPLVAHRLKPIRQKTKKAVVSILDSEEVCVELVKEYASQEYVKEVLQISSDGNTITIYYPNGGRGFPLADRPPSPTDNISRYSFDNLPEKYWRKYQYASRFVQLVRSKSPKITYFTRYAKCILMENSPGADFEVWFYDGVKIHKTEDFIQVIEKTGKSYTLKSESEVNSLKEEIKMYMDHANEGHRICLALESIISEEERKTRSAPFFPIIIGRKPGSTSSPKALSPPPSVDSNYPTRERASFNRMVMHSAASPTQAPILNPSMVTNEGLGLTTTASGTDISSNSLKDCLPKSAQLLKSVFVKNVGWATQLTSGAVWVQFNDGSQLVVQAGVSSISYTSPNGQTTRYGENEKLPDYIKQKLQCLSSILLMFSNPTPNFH
structure (smiles),measurement,setting,value
"Cc1cccc(-c2ccc(-c3cc4cnc(NCCCc5ccc(N)cc5)nc4n(CCCCN)c3=O)c(Cl)c2)n1 [compound 25, 8-(4-Aminobutyl)-2-((3-(4-aminophenyl)propyl)amino)-6-(2-chloro-4-(6-methylpyridin-2-yl)phenyl)pyrido[2,3-d]pyrimidin-7(8H)-one]",ΔTm 25,Erk7,2.9 °C
same,ΔTm 25,NDR2,6.7 °C
same,ΔTm 25,CK2a2,-1.9 °C
same,ΔTm 25,DYRK1A,-0.1 °C
same,ΔTm 25,BMX,3.1 °C
same,ΔTm 25,BRD4,-2.9 °C
same,ΔTm 25,PLK4,6.7 °C
"CNc1ncc2cc(-c3ccc(-c4cccc(C)n4)cc3Cl)c(=O)n(C[C@H]3CC[C@H](N)CC3)c2n1 [compound 23, 23]",ΔTm 23,Erk7,4.2 °C
same,ΔTm 23,NDR2,3.5 °C
same,ΔTm 23,CK2a2,-0.9 °C
same,ΔTm 23,DYRK1A,-0.3 °C
same,ΔTm 23,BMX,3.4 °C
same,ΔTm 23,BRD4,-1.1 °C
same,ΔTm 23,PLK4,7.1 °C
"CNc1ncc2cc(-c3ccc(-c4cccc(C)n4)cc3Cl)c(=O)n(CCCCN)c2n1 [compound 20, MRLW5]",ΔTm MRLW5 (20),Erk7,1.0 °C
same,ΔTm MRLW5 (20),NDR2,4.6 °C
same,ΔTm MRLW5 (20),CK2a2,-0.6 °C
same,ΔTm MRLW5 (20),DYRK1A,-1.0 °C
same,ΔTm MRLW5 (20),BMX,3.1 °C
same,ΔTm MRLW5 (20),BRD4,-0.7 °C
same,ΔTm MRLW5 (20),PLK4,5.2 °C
"CNc1ncc2cc(-c3ccc(-c4cccc(C)n4)cc3Cl)c(=O)n(CCC3CCNCC3)c2n1 [compound 22, 6-(2-Chloro-4-(6-methylpyridin-2-yl)phenyl)-2-(methylamino)-8-(2-(piperidin-4-yl)ethyl)pyrido[2,3-d]pyrimidin-7(8H)-one]",ΔTm 22,Erk7,1.5 °C
same,ΔTm 22,NDR2,5.1 °C
same,ΔTm 22,CK2a2,-1.4 °C
same,ΔTm 22,DYRK1A,0.5 °C
same,ΔTm 22,BMX,4.1 °C
same,ΔTm 22,BRD4,0.0 °C
same,ΔTm 22,PLK4,7.3 °C
"Cc1cccc(-c2ccc(-c3cc4cnc(NC(CO)CO)nc4n(CCCCN)c3=O)c(Cl)c2)n1 [compound 24, 8-(4-Aminobutyl)-6-(2-chloro-4-(6-methylpyridin-2-yl)phenyl)-2-((1,3-dihydroxypropan-2-yl)amino)pyrido[2,3-d]pyrimidin-7(8H)-one]",ΔTm MR24 (24),Erk7,-0.4 °C
same,ΔTm MR24 (24),NDR2,2.6 °C
same,ΔTm MR24 (24),CK2a2,-2.0 °C
same,ΔTm MR24 (24),DYRK1A,0.1 °C
same,ΔTm MR24 (24),BMX,0.6 °C
same,ΔTm MR24 (24),BRD4,-1.7 °C
same,ΔTm MR24 (24),PLK4,1.3 °C
"Cc1cccc(-c2ccc(-c3cc4cnc(NCCCN5CCOCC5)nc4n(CCCCN)c3=O)c(Cl)c2)n1 [compound 26, MR26]",ΔTm MR26 (26),Erk7,-0.4 °C
same,ΔTm MR26 (26),NDR2,5.2 °C
same,ΔTm MR26 (26),CK2a2,-1.0 °C
same,ΔTm MR26 (26),DYRK1A,-0.3 °C
same,ΔTm MR26 (26),BMX,2.4 °C
same,ΔTm MR26 (26),BRD4,-1.2 °C
same,ΔTm MR26 (26),PLK4,5.1 °C
